We go through 13 molecules from US20230056205A1, “SUBSTITUTED 4,6-DIHYDROSPIRO[[1,2,3]TRIAZOLO[4,5-B]PYRIDINE-7,3'-INDOLINE]-2',5(3H)-DIONE ANALOGUES” (The Board of Regents of The University of Texas System, priority 2019, published 2023).

Like-named read-outs stand apart in the source and are kept apart here.

One series relates to DENV-3 replicon. Nature of the series: Luciferase reporter replicon-based screening, DENV-3. Format: cell-based, DENV-3 (strain D3MY05-34640). How it is done: (§1) Luciferase Reporter Replicon-Based Screening. Huh7 cells containing a luciferase reporter replicon of DENV-1 (strain WestPac), DENV-2 (New Guinea C strain, NGC), DENV-3 (strain D3MY05-34640) and DENV-4 (strain D4MY01-22713) were used in this study. The replicon cells containing the Renilla luciferase and neomycin-resistance genes were generated using a similar strategy as described previously.^55 Briefly, Huh7 DENV-1 to -4 replicon cells were seeded at a density of 10k per well in a 96-well microplate. After incubation at 37° C. with 5% CO2 overnight, the cells were treated with 2-fold serial dilutions of compounds. Experiments were performed in duplicates. After 48 h of incubation, luciferase activities were measured using the EnduRen live-cell substrate (Promega) by following the manufacturer’s instructions. The dose-dependent curve was plotted and EC50 values were calculated using four parameter logistic regression in GraphPad software Prism 8.0.
Background: Reporter assays use an easily measured gene product as a stand-in for the process of interest.

In another series the test system is DENV-4 replicon. Nature of the series: Luciferase reporter replicon-based screening, DENV-4. Format: cell-based, DENV-4 (strain D4MY01-22713). The conditions noted are these: Dengue virus, DENV4, Huh-7, 48 h, read-out: EC50 DENV-4. How it is done:
as §1

Series [1] is described as follows: Cytotoxicity assay (CellTiter-Glo). The format is cell-based. Particulars: human, Huh7 cells stably expressing DENV-2 replicon. How it is done:
Cytotoxicity Assay. Huh7 cells or Huh7 replicon cells were seeded in a 96-well plate. After incubation at 37° C. with 5% CO2 overnight, the cells were treated with 2-fold serial dilutions of compounds. Experiments were performed in duplicates. After 48 h of incubation, cell viability was measured by adding the CellTiter-Glo reagent (Promega) to each well. The cell viability in 0.45% DMSO-treatment groups was treated at 100%. The cell viability in compound-treated wells was normalized to that of DMSO-treated wells. CC50 values were calculated using four parameter logistic regression in GraphPad software Prism 8.0.

In another series the test system is DENV-1 replicon. The series is described as follows: Luciferase reporter replicon-based screening, DENV-1. The format is cell-based, DENV-1 (strain WestPac). The conditions noted are these: Dengue virus, DENV1, Huh-7, 48 h, read-out: EC50 DENV-1. Here is the method: as §1
The next series relates to DENV-2 replicon. Nature of the series: Luciferase reporter replicon-based screening, DENV-2. Format: cell-based, DENV-2 (New Guinea C strain, NGC). Here is the method: as §1
[2] abbreviates: Dengue virus, DENV3, Huh-7, 48 h, read-out: EC50 DENV-3, Huh7 cells stably expressing DENV-3 replicon, 48 h.
The mark [3] stands for this setting: Dengue virus, DENV2, Huh-7, 48 h, read-out: EC50 DENV-2, Huh7 cells stably expressing DENV-2 replicon, 48 h.

As a reminder, the EC50 is the midpoint of the concentration-response curve. In general, CC50 refers to the concentration at which the toxic effect on the cells reaches its halfway point. Low readings indicate greater toxicity to the cells, high ones lower toxicity to the cells.

With `C[C@@H](c1ccc(Cl)cc1)n1nnc2c1NC(=O)C[C@]21C(=O)N(Cc2ccccc2)c2ccc(Cl)cc21` [Compound 24, (R)-1ʹ-Benzyl-5ʹ-chloro-3-((S)-1-(4-chlorophenyl)ethyl)-4,6-dihydrospiro[[1,2,3]triazolo[4,5-b]pyridine-7,3ʹ-indoline]-2ʹ,5(3H)-dione], the EC50 is 20 to 51 nM in the series with DENV-3 replicon (setting [2]); 20 nM in the series on DENV-3 replicon (read-out: EC50 DENV-3, Huh7 cells stably expressing DENV-3 replicon, 48 h); over 5000 nM in the series with DENV-4 replicon; 2000 nM in the series with DENV-1 replicon; 140 to 290 nM in the series with DENV-2 replicon (setting [3]); 150 nM in the series with DENV-2 replicon (read-out: EC50 DENV-2, Huh7 cells stably expressing DENV-2 replicon, 48 h). In addition, in series [1], the CC50 at 48 h is over 10000 nM.
For the molecule `C[C@@H](c1ccc(Cl)cc1)n1nnc2c1NC(=O)C[C@]21C(=O)Nc2ccc(Cl)cc21` [Compound 1a, (R)-5'-Chloro-3-((S)-1-(4-chlorophenyl)ethyl)-4,6-dihydrospiro[[1,2,3]triazolo[4,5-b]pyridine-7,3'-indoline]-2',5(3H)-dione], the EC50 with DENV-3 replicon (setting [2]) was 10 nM; in the series on DENV-4 replicon, over 5000 nM; in the series with DENV-1 replicon, over 5000 nM; with DENV-2 replicon (setting [3]) it was 39 nM. The CC50 at 48 h in series [1] was over 10000 nM.
Regarding `C[C@@H](c1ccc(Cl)cc1)n1nnc2c1NC(=O)C[C@]21C(=O)N(CCN(C)CCS(C)(=O)=O)c2ccc(Cl)cc21` [Compound 60, (R)-5'-Chloro-3-((S)-1-(4-chlorophenyl)ethyl)-1'-(2-(methyl(2-(methylsulfonyl)ethyl)amino)ethyl)-4,6-dihydrospiro[[1,2,3]triazolo[4,5-b]pyridine-7,3'-indoline]-2',5(3H)-dione], the EC50 in the series with DENV-3 replicon (setting [2]) was 18 nM; in the series on DENV-4 replicon it was over 5000 nM; with DENV-1 replicon, over 5000 nM; in the series with DENV-2 replicon (setting [3]), 77 nM. The CC50 at 48 h in series [1] was over 10000 nM.
As to `C[C@@H](c1ccc(Cl)cc1)n1nnc2c1NC(=O)C[C@]21C(=O)N(CCN2CCN(C)CC2)c2ccc(Cl)cc21` [Compound 59, (R)-5'-Chloro-3-((S)-1-(4-chlorophenyl)ethyl)-1'-(2-(4-methylpiperazin-1-yl)ethyl)-4,6-dihydrospiro[[1,2,3]triazolo[4,5-b]pyridine-7,3'-indoline]-2',5(3H)-dione], the EC50 was 30 nM with DENV-3 replicon (setting [2]), over 5000 nM in the series with DENV-4 replicon, over 5000 nM in the series with DENV-1 replicon and 300 nM in the series on DENV-2 replicon (setting [3]). Further, in series [1], the CC50 at 48 h is over 10000 nM.
For `C[C@@H](c1ccc(Cl)cc1)n1nnc2c1NC(=O)C[C@]21C(=O)N(Cc2ccccn2)c2ccc(Cl)cc21` [Compound 33, (R)-5'-chloro-3-((S)-1-(4-chlorophenyl)ethyl)-1'-(pyridin-2-ylmethyl)-4,6-dihydrospiro[[1,2,3]triazolo[4,5-b]pyridine-7,3'-indoline]-2',5(3H)-dione], the EC50 in the series with DENV-3 replicon (setting [2]) is 3 nM; with DENV-4 replicon it was over 5000 nM; with DENV-1 replicon it was over 5000 nM; in the series with DENV-2 replicon (setting [3]), 20 nM. The molecule also yielded a CC50 at 48 h in series [1] of over 10000 nM.
Regarding `CCCCCCN1C(=O)[C@]2(CC(=O)Nc3c2nnn3[C@@H](C)c2ccc(Cl)cc2)c2cc(Cl)ccc21` [Compound 11, (R)-5'-Chloro-3-((S)-1-(4-chlorophenyl)ethyl)-1'-hexyl-4,6-dihydrospiro[[1,2,3]triazolo[4,5-b]pyridine-7,3'-indoline]-2',5(3H)-dione], the EC50 was 140 nM with DENV-3 replicon (setting [2]), over 5000 nM with DENV-4 replicon, 830 nM in the series with DENV-1 replicon and 810 nM in the series on DENV-2 replicon (setting [3]). In series [1], this molecule came in with a CC50 at 48 h of over 10000 nM.
The corresponding values for `C[C@@H](c1ccc(Cl)cc1)n1nnc2c1NC(=O)C[C@]21C(=O)N(CC2CC2)c2ccc(Cl)cc21` [Compound 17, (R)-5'-Chloro-3-((S)-1-(4-chlorophenyl)ethyl)-1'-(cyclopropylmethyl)-4,6-dihydrospiro[[1,2,3]triazolo[4,5-b]pyridine-7,3'-indoline]-2',5(3H)-dione] are 17 nM, over 5000 nM, 3100 nM, 110 nM and over 10000 nM.
For `CC#CCN1C(=O)[C@]2(CC(=O)Nc3c2nnn3[C@@H](C)c2ccc(Cl)cc2)c2cc(Cl)ccc21` [Compound 20, (R)-1'-(But-2-yn-1-yl)-5'-chloro-3-((S)-1-(4-chlorophenyl)ethyl)-4,6-dihydrospiro[[1,2,3]triazolo[4,5-b]pyridine-7,3'-indoline]-2',5(3H)-dione] the same measures were 20 nM, over 5000 nM, over 5000 nM, 63 nM and over 10000 nM.
For `COCCCN1C(=O)C[C@]2(C(=O)Nc3ccc(Cl)cc32)c2nnn([C@@H](C)c3ccc(Cl)cc3)c21` [Compound 40, (R)-5'-Chloro-3-((S)-1-(4-chlorophenyl)ethyl)-4-(3-methoxypropyl)-4,6-dihydrospiro[[1,2,3]triazolo[4,5-b]pyridine-7,3-indoline]-2',5(3H)-dione], the EC50 was 910 nM with DENV-3 replicon (setting [2]), over 10000 nM in the series with DENV-4 replicon, over 10000 nM in the series with DENV-1 replicon and 8700 nM in the series on DENV-2 replicon (setting [3]). The molecule also displayed a CC50 at 48 h in series [1] of over 10000 nM.
On to `C[C@@H](c1ccc(Cl)cc1)n1nnc2c1NC(=O)C[C@]21C(=O)N(CCCN2CCCCC2)c2ccc(Cl)cc21` [Compound 64, (R)-5'-Chloro-3-((S)-1-(4-chlorophenyl)ethyl)-1'-(3-(piperidin-1-yl)propyl)-4,6-dihydrospiro[[1,2,3]triazolo[4,5-b]pyridine-7,3'-indoline]-2',5(3H)-dione], for which the EC50 with DENV-3 replicon (setting [2]) is 12 nM; in the series with DENV-4 replicon, over 5000 nM; in the series on DENV-1 replicon, over 5000 nM; with DENV-2 replicon (setting [3]), 130 nM. Besides, the CC50 at 48 h in series [1] was over 10000 nM.
For `C[C@@H](c1ccc(Cl)cc1)n1nnc2c1NC(=O)C[C@]21C(=O)N(CCCCN(C)C)c2ccc(Cl)cc21` [Compound 66, (R)-5'-Chloro-3-((S)-1-(4-chlorophenyl)ethyl)-1'-(4-(dimethylamino)butyl)-4,6-dihydrospiro[[1,2,3]triazolo[4,5-b]pyridine-7,3'-indoline]-2',5(3H)-dione], the EC50 was 38 nM with DENV-3 replicon (setting [2]), over 5000 nM in the series with DENV-4 replicon, over 5000 nM in the series with DENV-1 replicon and 190 nM in the series with DENV-2 replicon (setting [3]). The CC50 at 48 h in series [1] was over 10000 nM.
On to `C[C@@H](c1ccc(Cl)cc1)n1nnc2c1NC(=O)C[C@]21C(=O)N(CCN2CCCCC2)c2ccc(Cl)cc21` [Compound 56, (R)-5'-Chloro-3-((S)-1-(4-chlorophenyl)ethyl)-1'-(2-(piperidin-1-yl)ethyl)-4,6-dihydrospiro[[1,2,3]triazolo[4,5-b]pyridine-7,3'-indoline]-2',5(3H)-dione], for which the EC50 in the series on DENV-3 replicon (setting [2]) is 5 nM; with DENV-4 replicon, over 5000 nM; in the series with DENV-1 replicon, over 5000 nM; in the series on DENV-2 replicon (setting [3]) it was 74 nM. Moreover, in series [1], the 50% cytotoxic concentration (CC50) at 48 h is over 10000 nM.
As to `C[C@@H](c1ccc(Cl)cc1)n1nnc2c1NC(=O)C[C@]21C(=O)N(Cc2cc(C(C)(C)C)cc(C(C)(C)C)c2)c2ccc(Cl)cc21` [Compound 31, (R)-5'-Chloro-3-((S)-1-(4-chlorophenyl)ethyl)-1'-(3,5-di-tert-butylbenzyl)-4,6-dihydrospiro[[1,2,3]triazolo[4,5-b]pyridine-7,3ʹ-indoline]-2',5(3H)-dione], the EC50 in the series with DENV-3 replicon (setting [2]) is 5900 nM; in the series with DENV-4 replicon, 4900 nM; in the series with DENV-1 replicon it was 4600 nM; in the series with DENV-2 replicon (setting [3]), over 10000 nM. In addition, in series [1], the CC50 at 48 h was over 10000 nM.
